Source: patent US7652063B2, “10-hydroxy-11-dihydroprostaglandin analogs as selective EP4 agonists” (Allergan, Inc., priority 2004, dated 2010)

Key:
HEP3D = molecular target: T1, HEP3D (Homo sapiens, UniProt P43115); assay: Radioligand binding, hEP3D; details: competition vs 5 nM [3H]-PGE2
T1 sequence (P43115 1-374 isoform P43115-4): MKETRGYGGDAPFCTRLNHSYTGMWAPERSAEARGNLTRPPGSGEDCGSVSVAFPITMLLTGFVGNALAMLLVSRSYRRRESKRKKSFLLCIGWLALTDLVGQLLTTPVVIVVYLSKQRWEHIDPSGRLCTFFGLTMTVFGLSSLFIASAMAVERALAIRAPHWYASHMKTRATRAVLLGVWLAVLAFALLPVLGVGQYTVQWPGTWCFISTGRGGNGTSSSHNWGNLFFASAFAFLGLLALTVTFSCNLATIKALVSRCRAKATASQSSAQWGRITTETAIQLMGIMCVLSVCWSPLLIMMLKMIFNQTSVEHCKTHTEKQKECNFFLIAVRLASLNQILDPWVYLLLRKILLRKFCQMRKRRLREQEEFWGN

hEP4/Gqs5 = molecular target: T2, hEP4/Gqs5 (Homo sapiens, UniProt P35408); assay: FLIPR calcium signal, hEP4; assay type: cell-based; details: HEK-293(EBNA) cells, read-out: FUNCTIONAL (nm) HEP4
T2 construct: expressed in transfected cells; host or cells: HEK-293(EBNA)
T2 sequence (P35408 whole entry): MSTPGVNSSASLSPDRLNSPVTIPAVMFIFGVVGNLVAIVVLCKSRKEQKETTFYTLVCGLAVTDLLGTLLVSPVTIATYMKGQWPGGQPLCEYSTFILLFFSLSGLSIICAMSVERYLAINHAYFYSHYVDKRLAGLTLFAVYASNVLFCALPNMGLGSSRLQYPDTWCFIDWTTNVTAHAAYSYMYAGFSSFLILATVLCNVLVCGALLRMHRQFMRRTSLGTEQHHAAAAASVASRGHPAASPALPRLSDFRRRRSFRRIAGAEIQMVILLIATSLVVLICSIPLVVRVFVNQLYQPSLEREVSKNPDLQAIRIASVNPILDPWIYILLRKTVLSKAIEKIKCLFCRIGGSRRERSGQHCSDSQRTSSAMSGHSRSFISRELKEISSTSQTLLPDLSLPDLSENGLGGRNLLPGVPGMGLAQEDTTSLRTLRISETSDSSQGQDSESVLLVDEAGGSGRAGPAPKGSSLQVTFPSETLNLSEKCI
Description: (§1) Methods for Flipr™ Studies
(§2) HEK-293(EBNA) cells, stably expressing one type or subtype of recombinant human prostaglandin receptors (prostaglandin receptors expressed: hDP/Gqs5; hEP1; hEP2/Gqs5; hEP3A/Gqi5; hEP4/Gqs5; hFP; hIP; hTP), were cultured in 100 mm culture dishes in high-glucose DMEM medium containing 10% fetal bovine serum, 2 mM 1-glutamine, 250 μg/ml geneticin (G418) and 200 μg/ml hygromycin B as selection markers, and 100 units/ml penicillin G, 100 μg/ml streptomycin and 0.25 μg/ml amphotericin B.
(§3) (b) Calcium Signal Studies on the Flipr™
(§4) Cells were seeded at a density of 5×10^4 cells per well in Biocoat® Poly-D-lysine-coated black-wall, clear-bottom 96-well plates (Becton-Dickinson) and allowed to attach overnight in an incubator at 37° C. Cells were then washed two times with HBSS-HEPES buffer (Hanks Balanced Salt Solution without bicarbonate and phenol red, 20 mM HEPES, pH 7.4) using a Denley Cellwash plate washer (Labsystems). […]
(§5) Cells were excited with an Argon laser at 488 nm, and emission was measured through a 510-570 nm bandwidth emission filter (FLIPR™, Molecular Devices, Sunnyvale, Calif.). […] The peak increase in fluorescence intensity was recorded for each well. […] The peak fluorescence change in each drug-containing well was then expressed relative to the controls. […]

EP4 receptors = molecular target: T3, EP4 receptors (Homo sapiens, UniProt P35408); assay: Radioligand binding, hEP4; details: HEK-293 membranes, competition vs 5 nM [3H]-PGE2
T3 construct: expressed in transfected cells; host or cells: HEK-293 (membrane fraction)
T3 sequence (P35408 whole entry): as above
Description: Cells Stably Expressing EP1, EP2, EP4 and FP Receptors
HEK-293 cells stably expressing the human or feline FP receptor, or EP1, EP2, or EP4 receptors were washed with TME buffer, scraped from the bottom of the flasks, and homogenized for 30 sec using a Brinkman PT 10/35 polytron. TME buffer was added to achieve a final 40 ml volume in the centrifuge tubes (the composition of TME is 100 mM TRIS base, 20 mM MgCl2, […]; 10N HCl is added to achieve a pH of 7.4).
The cell homogenate was centrifuged at 19000 r.p.m. for 20 min at 4° C. using a Beckman Ti-60 rotor. The resultant pellet was resuspended in TME buffer to give a final 1 mg/ml protein concentration, as determined by Biorad assay. Radioligand binding competition assays vs. [^3H-]17 -phenyl PGF2α (5 nM) were performed in a 100 μl volume for 60 min. Binding reactions were started by adding plasma membrane fraction. The reaction was terminated by the addition of 4 ml ice-cold TRIS-HCl buffer and rapid filtration through glass fiber GF/B filters using a Brandel cell harvester. The filters were washed 3 times with ice-cold buffer and oven dried for one hour.
[^3H-] PGE2 (specific activity 180 Ci mmol) was used as the radioligand for EP receptors. [^3H] […] 17-phenyl PGF2α and non-specific binding determined with 10^−5 M of unlabeled PGE2, or 17-phenyl PGF2α, according to receptor subtype studied.

hTP = molecular target: T4, hTP (Homo sapiens, UniProt P21731); assay: FLIPR calcium signal, hTP; assay type: cell-based; details: HEK-293(EBNA) cells, read-out: FUNCTIONAL (nm) HTP
T4 construct: expressed in transfected cells; host or cells: HEK-293(EBNA)
T4 sequence (P21731 1-343): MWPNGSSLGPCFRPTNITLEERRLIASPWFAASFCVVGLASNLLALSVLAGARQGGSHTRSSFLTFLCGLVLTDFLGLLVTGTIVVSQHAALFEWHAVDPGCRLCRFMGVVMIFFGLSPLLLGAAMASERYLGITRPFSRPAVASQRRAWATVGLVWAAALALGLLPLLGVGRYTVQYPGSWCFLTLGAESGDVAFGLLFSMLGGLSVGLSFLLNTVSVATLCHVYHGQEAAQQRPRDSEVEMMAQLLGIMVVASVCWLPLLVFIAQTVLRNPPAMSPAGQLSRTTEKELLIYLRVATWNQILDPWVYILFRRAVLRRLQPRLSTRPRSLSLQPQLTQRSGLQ
Description: as §1, §2, §3, §4, §5

IC50 (HEP3D) [nM] | EC50 (hEP4/Gqs5) [nM] | IC50 (EP4 receptors) [nM] | EC50 (hTP) [nM] | Compound
> 10000 | 53 | 170 | – | O=C(O)CCC/C=C\C[C@H]1C(=O)C(O)C[C@@H]1/C=C/C(O)CCc1sc2ccccc2c1Cl (single isomer, unassigned) [Compound 9H]
8700 | 78 | 200 | > 10000 | O=C(O)CCC/C=C\C[C@H]1C(=O)C(O)C[C@@H]1/C=C/C(O)CCc1sc2ccccc2c1Cl (single isomer, unassigned) [Compound 9L]
